Reference: BindingDB's records for doi:10.1021/cb500355c (2015)

The molecules below were run against RAC-alpha serine/threonine-protein kinase [E49C,C296S,C310S,C344S] (Homo sapiens, UniProt P31749, C296S/C310S/C344S/E49C) (assay: iFLik Assay). Conditions: pH 7.4.
RAC-alpha serine/threonine-protein kinase [E49C,C296S,C310S,C344S], sequence (P31749 whole entry E49C/C296S/C310S/C344S): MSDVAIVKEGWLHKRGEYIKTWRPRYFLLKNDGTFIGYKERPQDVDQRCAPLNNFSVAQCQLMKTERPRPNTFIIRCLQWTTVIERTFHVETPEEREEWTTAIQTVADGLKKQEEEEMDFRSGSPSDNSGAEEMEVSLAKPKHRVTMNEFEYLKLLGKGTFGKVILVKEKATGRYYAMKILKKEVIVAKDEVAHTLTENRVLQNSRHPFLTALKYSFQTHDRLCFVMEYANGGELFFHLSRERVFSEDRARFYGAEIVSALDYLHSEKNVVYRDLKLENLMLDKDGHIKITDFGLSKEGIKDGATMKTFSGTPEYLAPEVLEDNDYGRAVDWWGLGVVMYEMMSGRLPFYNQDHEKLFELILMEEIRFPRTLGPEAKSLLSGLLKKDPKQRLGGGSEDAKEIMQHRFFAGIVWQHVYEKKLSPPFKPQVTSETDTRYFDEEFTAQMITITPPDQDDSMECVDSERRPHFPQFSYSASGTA
Method: Labeled Akt1 was diluted to 200 nM in the measurement buffer consisting of 50 mMHEPES pH 7.4, 200 mM NaCl, and 0.01% Triton-X 100. Dilution series of candidate compounds were prepared in DMSO at 21× the final desired concentration. Compounds (0.5 μL) were then mixed with labeled Akt1 (10 μL) in triplicate and with measurement buffer alone (background fluorescence control) in quadruplicate at 12different concentrations. The final compound concentrations ranged from 0.8 nM to 500 μM and each well contained 5% v/v DMSO after mixing. Plates were then covered with an adhesive plastic foil and incubated for 2 h at RT prior to measurement of emission intensities at fluorophore-specific wavelengths
Molecule `O=c1[nH]ccc2nc(-c3ccc(CN4CCc5ccccc5C4)cc3)c(-c3ccccc3)cc12` [2-(4-((3,4-Dihydroisoquinolin-2(1H)-yl)methyl)phenyl)-3-phenyl-1,6-naphthyridin-5(6H)-one (7c)] has a Kd of 6 µM.
Work on `O=c1[nH]ccc2nc(-c3ccc(CN4CCC(n5c(=O)[nH]c6ccccc65)CC4)cc3)c(-c3ccccc3)cc12` [2-(4-((4-(2-Oxo-2,3-dihydro-1H-benzo[d]imidazol-1-yl)piperidin-1-yl)methyl)phenyl)-3-phenyl-1,6-naphthyridin-5(6H)-one (7a)] yielded a Kd of 0.41 µM.
For `COc1ccc(N2CCN(Cc3ccc(-c4nc5cc[nH]c(=O)c5cc4-c4ccccc4)cc3)CC2)cc1` [2-(4-((4-(4-Methoxyphenyl)piperazin-1-yl)methyl)phenyl)-3-phenyl-1,6-naphthyridin-5(6H)-one (7e)], the Kd was 7.2 µM.
`O=c1[nH]ccc2nc(-c3ccc(CN4CCC(n5c(=O)[nH]c6cc(Cl)ccc65)CC4)cc3)c(-c3ccccc3)cc12` [2-(4-((4-(5-Chloro-2-oxo-2,3-dihydro-1H-benzo[d]imidazol-1-yl)piperidin-1-yl)methyl)phenyl)-3-phenyl-1,6-naphthyridin-5(6H)-one (7b)] showed a Kd of 0.15 µM.
Molecule `O=c1[nH]ccc2nc(-c3ccc(CN4CCN(c5ncccn5)CC4)cc3)c(-c3ccccc3)cc12` [3-Phenyl-2-(4-((4-(pyrimidin-2-yl)piperazin-1-yl)methyl)phenyl)-1,6-naphthyridin-5(6H)-one (7f)] has a Kd of 1.1 µM.
`O=C(C1CCCO1)N1CCN(Cc2ccc(-c3nc4cc[nH]c(=O)c4cc3-c3ccccc3)cc2)CC1` (centres undefined) [3-Phenyl-2-(4-((4-(tetrahydrofuran-2-carbonyl)piperazin-1-yl)methyl)phenyl)-1,6-naphthyridin-5(6H)-one (7g)] gave a Kd of 8 µM.
`c1ccc(-c2cn(-c3ccccc3)c3ncnc(NCc4cccs4)c23)cc1` [5,7-diphenyl-N-(thiophen-2-ylmethyl)-7H-pyrrolo[2,3-d]pyrimidin-4-amine (8d)] was tested, and the Kd was 2.2 µM.
In the case of `Cc1ccc(-n2cc(-c3ccccc3)c3c(NCc4cccs4)ncnc32)cc1Cl` [7-(3-chloro-4-methylphenyl)-5-phenyl-N-(thiophen-2-ylmethyl)-7H-pyrrolo[2,3-d]pyrimidin-4-amine (8g)], the Kd is reported as 264 µM.
`Cc1cccc(-n2cc(-c3ccccc3)c3c(NCc4cccs4)ncnc32)c1` [7-(3-methylphenyl)-5-phenyl-N-(thiophen-2-ylmethyl)-7H-pyrrolo[2,3-d]pyrimidin-4-amine (8e)] gave a Kd of 99 µM.
`Fc1ccc(-n2cc(-c3ccccc3)c3c(NCc4ccccn4)ncnc32)cc1` [7-(4-fluorophenyl)-5-phenyl-N-(pyridin-2-ylmethyl)-7H-pyrrolo[2,3-d]pyrimidin-4-amine (8c)] showed a Kd of 20 µM.
For `Cc1ccc(-n2cc(-c3ccccc3)c3c(NCc4cccnc4)ncnc32)cc1` [7-(4-methylphenyl)-5-phenyl-N-(pyridin-3-ylmethyl)-7H-pyrrolo[2,3-d]pyrimidin-4-amine (8b)], the Kd was 7.8 µM.
In the case of `Cc1ccc(-n2cc(-c3ccccc3)c3c(NCc4cccs4)ncnc32)cc1` [7-(4-methylphenyl)-5-phenyl-N-(thiophen-2-ylmethyl)-7H-pyrrolo[2,3-d]pyrimidin-4-amine (8a)], the Kd is reported as 2.2 µM.
Work on `COC(=O)C1CCN(Cc2ccc(-c3nc4cc[nH]c(=O)c4cc3-c3ccccc3)cc2)CC1` [Methyl 1-(4-(5-oxo-3-phenyl-5,6-dihydro-1,6-naphthyridin-2-yl)benzyl)piperidine-4-carboxylate (7d)] yielded a Kd of 0.9 µM.
Molecule `Cc1ccc(-n2cc(-c3ccccc3)c3c(NCc4ccccc4)ncnc32)cc1` [N-benzyl-7-(4-methylphenyl)-5-phenyl-7H-pyrrolo[2,3-d]pyrimidin-4-amine (8f)] has a Kd of 6 µM.
